Laboratory results published in US20040224960A1, “Pharmaceutical compositions and methods for their use” (Agouron Pharmaceuticals, Inc., priority 2003, published 2004).

Biological target: T1, cytochrome P450 2D6 (Homo sapiens, UniProt P10635)
T1 construct: were incubated with human liver microsomes (0.25 mg/mL protein and 0.075 μM P450); from tissue; host or cells: human liver microsomes
Experiment: inhibition of cytochrome P450 2D6 in human liver microsomes (dextromethorphan to dextrorphan)
Format: biochemical
Settings: human liver microsomes 0.25 mg/mL protein, 8 μM dextromethorphan, 1 mM NADPH, 37° C., 20 min; average IC50 with number of tests in parentheses
Experimental: Following the 20 min incubation, the reaction was quenched by addition of 200 μL acetonitrile containing 0.1 μM buspirone as an internal standard. The samples were then vortex mixed and centrifuged to pellet the protein. The supernantant was transferred, dried under nitrogen flow and reconstituted in mobile phase. A 10 uL aliquot was injected onto a gradient reversed phase HPLC system with a Phenomenex Luna C18 (50×4.6 mm) column. Dextrorphan, formed by the metabolism of dextromethorphan by CYP 2D6, was monitored using tandem MS/MS in the APCl mode with the MRM transition of m/z 258.3>156.6. Remaining-CYP2D6 activity (%) was determined for the samples relative to a vehicle control. The data were analyzed by non-linear regression according to % R=% Rmax[formula](1−(C/(C+IC50))) using WinNonLin (version 4.0.1), where % R is the % remaining CYP 2D6 activity relative to the vehicle control, C is the concentration of the compound of interest, and IC50 is the inhibitory concentration of the compound of interest giving 50% inhibition of maximal % remaining activity. The data are reported as IC50s (μM). If more than one assay was performed for a particular compound, the average IC50 is reported with the number of tests in parentheses.

T1 sequence (P10635 whole entry): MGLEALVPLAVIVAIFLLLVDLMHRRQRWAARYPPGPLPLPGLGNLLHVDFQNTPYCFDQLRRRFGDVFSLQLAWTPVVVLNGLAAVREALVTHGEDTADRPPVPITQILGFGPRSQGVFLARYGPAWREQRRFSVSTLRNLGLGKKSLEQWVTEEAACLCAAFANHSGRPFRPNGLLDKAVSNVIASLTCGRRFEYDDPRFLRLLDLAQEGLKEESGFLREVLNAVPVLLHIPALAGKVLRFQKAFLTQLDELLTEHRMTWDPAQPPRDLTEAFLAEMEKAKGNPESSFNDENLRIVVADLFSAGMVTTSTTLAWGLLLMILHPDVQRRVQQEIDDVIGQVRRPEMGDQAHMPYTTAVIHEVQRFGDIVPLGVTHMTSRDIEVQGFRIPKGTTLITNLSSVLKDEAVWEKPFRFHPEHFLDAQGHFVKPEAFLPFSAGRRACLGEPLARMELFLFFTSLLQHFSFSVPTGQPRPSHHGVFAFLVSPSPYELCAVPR

Row | Structure (SMILES) | IC50 [nM]
1 | Cc1cnc2nc(CC3=C(O)CC(CCc4ccc(C(C)(C)C#N)c(F)c4)(C4CCCC4)OC3=O)nn2c1 (racemic) [Compound 9, 2-[4-(2-{2-cyclopentyl-4-hydroxy-5-[(6-methyl[1,2,4]triazolo[1,5-a]pyrimidin-2-yl)methyl]-6-oxo-3,6-dihydro-2H-pyran-2-yl}ethyl)-2-fluorophenyl]-2-methylpropanenitrile] | < 74
2 | CC(C)(C#N)c1ccc(CCC2(C3CCCC3)CC(O)=C(Cc3nc4ncccn4n3)C(=O)O2)cc1F (racemic) [Compound 18, 2-(4-{2-[2-cyclopentyl-4-hydroxy-6-oxo-5-([1,2,4]triazolo[1,5-a]pyrimidin-2-ylmethyl)-3,6-dihydro-2H-pyran-2-yl]ethyl}-2-fluorophenyl)-2-methylpropanenitrile] | 670
